According to patent US9493478B2, “Fused ring compound containing furan or salt thereof and pharmaceutical composition comprising same” (YUHAN CORPORATION, priority 2012, dated 2016):

Tests used:
Format in all cases: biochemical
PI3Kγ (p120γ)(h) = PI3Kγ (p120γ)(h) (Homo sapiens, UniProt P48736); test: Assay for phosphatidylinositol 3-kinase gamma (PI3Kγ) activity, PI3K-HTRF kit; details: TR-FRET; enzyme 1.45 μg/ml, 10 μM PIP2, 10 μM ATP
Experimental: (§1) The compounds of the present invention were assayed for the activity of phosphatidylinositol 3-kinase gamma (PI3Kγ) by using a PI3K enzyme-homogenous time resolved fluorescence (PI3K-HTRF) kit, which is available from Upstate (Millipore Co, Billerica, Mass., USA).
(§2) Three kinds of buffer solutions including a phosphorylation reaction solution (a reaction buffer containing 40 mM MgCl2 which is available from Upstate was diluted 4 times and added with 5 mM DTT), a stop solution (STOP A and B solutions which are available from Upstate were mixed at a ratio of 3:1) and a fluorescence detection solution (Detection solutions A, B and C which are available from Upstate were mixed at a ratio of 1:1:18) were prepared. 1 mM of PIP2 substrate (phosphatidylinositol 4,5 biphosphate; Upstate), PI3Kγ (#14-558; Upstate) enzyme and 10 mM ATP (Sigma Aldrich Co., St. Louis, Mo., USA) were prepared. Each of PI3Kγ, 1 mM PIP2 and 10 mM ATP was diluted to 2.9 μg/ml (final reaction concentration: 1.45 μg/ml), 20 μM (final reaction concentration: 10 μM) and 40 μM (final reaction concentration: 10 μM), respectively. The buffer solution used for dilution and preparation process was the phosphorylation reaction solution. The stop solution was used for the termination of phosphorylation reaction, and the fluorescence detection solution was used for the detection of time-resolved fluorescence signals.
(§3) Each test sample was transferred to a 384 well low flange white flat bottom microplate (#3572, Corning Life Sciences, Lowell, Mass., USA) by using a multi 8-channel (Pipetman Neo multi 8×20, Gilson, Middleton, Wis., USA) to make a final phosphorylation reaction volume of 20 μl per each well. For the negative control, 5 μl of 14.4% DMSO and 10 μl of PIP2 substration solution were used, and 5 μl of 14.4% DMSO and 10 μl of PIP2/PI3Kγ mixed solution were used as the positive control. For the test group, 5 μl of a solution prepared by dissolving the compound obtained in Example in DMSO and 10 μl of PIP2/PI3Kγ mixed solution were used. Before the initiation of the phosphorylation reaction, sample compounds were pretreated with the enzyme for approximately 10 minutes, and then the phosphorylation reaction was induced by adding 5 μl of ATP. Since each of the test compound and ATP takes up 25% of the total volume, and PIP2 and PI3Kγ take up 50% of the total volume during the reaction, each solution was concentrated 4 and 2 times, respectively, before mixing the solutions. Subsequently, the test sample was gently shook for 3 minutes and subjected to a phosphorylation reaction for 90 minutes at room temperature, which was then added with 5 μl of the stop solution to terminate the phosphorylation reaction. In order to induce a time-resolved fluorescence reaction, 5 μl of the fluorescence detection solution was added to the sample. The fluorescence detection solution contains biotin-phosphatidylinositol 3,4,5-triphosphate (PIP3), streptavidin-labeled Allopycocyanin (APC) and europium-labeled Pleckstrin homology domain (the PIP3 binds to PH domain), and the time-resolved fluorescence reaction is induced by a series of reaction of PH domain and PIP3, and biotin and streptavidin. The sample was left to stand for 6 hours at room temperature, and the time-resolved fluorescence resonance energy transfer (TR-FRET) rate was measured (emission wavelength: 665 nm, 620 nm, excitation wavelength: 340 nm) by using a Flexstation3 Micro plate reader (Molecular Devices, USA). TR-FRET Rate and TR-Inhibition Rate were calculated based on Equations 1 and 2 below, and the results are expressed in IC50, which is the concentration of a compound that inhibits 50% of PI3Kγ activity in vitro. TR-FRET Rate=(665 nm emission wavelength/620 nm emission wavelength)×10000 <Equation 1> TR-FRET Inhibition Rate=[(TR-FRET Rate of Sample−TR-FRET Rate of Negative Control)/(TR-FRET Rate of Positive Control−TR-FRET Rate of Negative Control)]×100 <Equation 2>

PI3Kα (p110α/p85α)(h) = PI3Kα (p110α/p85α)(h) (Homo sapiens, UniProt P42336); test: Assay for phosphatidylinositol 3-kinase alpha (PI3Kα) activity, PI3K-HTRF kit; details: TR-FRET; enzyme 0.3625 μg/ml, 10 μM PIP2, 10 μM ATP
Chain of PI3Kα (p110α/p85α)(h) (P42336 whole entry): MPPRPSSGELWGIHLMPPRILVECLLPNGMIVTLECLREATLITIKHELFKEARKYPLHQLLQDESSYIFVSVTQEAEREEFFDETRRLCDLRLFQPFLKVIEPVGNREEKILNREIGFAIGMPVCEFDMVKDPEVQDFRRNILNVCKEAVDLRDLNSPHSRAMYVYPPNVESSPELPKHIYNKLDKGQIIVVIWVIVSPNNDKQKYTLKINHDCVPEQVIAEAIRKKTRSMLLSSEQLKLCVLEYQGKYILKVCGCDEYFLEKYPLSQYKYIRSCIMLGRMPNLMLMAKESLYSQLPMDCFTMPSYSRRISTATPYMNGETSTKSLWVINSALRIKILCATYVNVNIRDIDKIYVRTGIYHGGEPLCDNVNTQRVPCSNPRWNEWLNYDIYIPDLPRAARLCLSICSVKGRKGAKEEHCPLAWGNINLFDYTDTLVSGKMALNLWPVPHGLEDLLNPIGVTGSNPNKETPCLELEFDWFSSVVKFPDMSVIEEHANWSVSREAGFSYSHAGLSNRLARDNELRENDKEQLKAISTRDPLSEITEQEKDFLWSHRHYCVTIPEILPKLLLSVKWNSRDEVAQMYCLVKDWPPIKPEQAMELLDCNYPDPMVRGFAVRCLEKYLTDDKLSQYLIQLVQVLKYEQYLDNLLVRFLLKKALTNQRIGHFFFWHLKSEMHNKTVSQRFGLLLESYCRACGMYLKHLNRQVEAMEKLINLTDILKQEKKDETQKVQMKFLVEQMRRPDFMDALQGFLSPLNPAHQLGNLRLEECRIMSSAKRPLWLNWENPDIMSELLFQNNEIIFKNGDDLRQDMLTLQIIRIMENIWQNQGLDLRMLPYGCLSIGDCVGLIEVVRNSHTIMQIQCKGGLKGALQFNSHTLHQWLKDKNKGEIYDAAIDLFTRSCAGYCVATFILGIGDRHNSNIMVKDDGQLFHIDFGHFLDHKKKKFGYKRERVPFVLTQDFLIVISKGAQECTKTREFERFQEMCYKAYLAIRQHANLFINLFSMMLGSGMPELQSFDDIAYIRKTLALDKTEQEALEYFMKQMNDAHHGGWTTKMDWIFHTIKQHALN
Chain of PI3Kα (p110α/p85α)(h) (P27986 whole entry partner): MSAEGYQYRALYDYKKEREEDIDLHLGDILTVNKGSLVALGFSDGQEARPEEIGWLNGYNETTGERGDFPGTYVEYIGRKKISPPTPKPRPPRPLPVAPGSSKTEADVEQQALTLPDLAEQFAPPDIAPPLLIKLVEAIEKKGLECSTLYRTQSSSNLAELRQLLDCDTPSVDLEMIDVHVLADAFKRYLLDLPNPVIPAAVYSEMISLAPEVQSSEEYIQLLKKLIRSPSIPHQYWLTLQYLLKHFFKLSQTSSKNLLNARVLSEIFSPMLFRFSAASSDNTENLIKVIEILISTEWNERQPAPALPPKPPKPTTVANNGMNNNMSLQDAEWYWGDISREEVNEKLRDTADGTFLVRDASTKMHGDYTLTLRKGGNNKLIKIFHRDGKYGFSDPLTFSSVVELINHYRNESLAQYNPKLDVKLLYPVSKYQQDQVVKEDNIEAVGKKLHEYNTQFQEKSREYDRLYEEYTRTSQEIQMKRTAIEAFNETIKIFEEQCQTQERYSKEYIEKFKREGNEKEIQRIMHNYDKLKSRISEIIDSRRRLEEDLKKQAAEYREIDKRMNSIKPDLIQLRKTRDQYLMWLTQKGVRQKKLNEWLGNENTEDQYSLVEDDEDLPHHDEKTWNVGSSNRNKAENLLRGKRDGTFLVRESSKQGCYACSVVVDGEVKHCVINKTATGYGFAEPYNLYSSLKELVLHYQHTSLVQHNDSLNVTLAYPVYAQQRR
Experimental: [The source words this procedure for another target and says it was used here with some conditions changed.] as §1, §2, §3

PI3Kδ (p110δ/p85α)(h) = PI3Kδ (p110δ/p85α)(h) (Homo sapiens, UniProt O00329); test: Assay for phosphatidylinositol 3-kinase delta (PI3Kδ) activity, PI3K-HTRF kit; details: TR-FRET; enzyme 0.725 μg/ml, 10 μM PIP2, 10 μM ATP
Chain of PI3Kδ (p110δ/p85α)(h) (O00329 whole entry): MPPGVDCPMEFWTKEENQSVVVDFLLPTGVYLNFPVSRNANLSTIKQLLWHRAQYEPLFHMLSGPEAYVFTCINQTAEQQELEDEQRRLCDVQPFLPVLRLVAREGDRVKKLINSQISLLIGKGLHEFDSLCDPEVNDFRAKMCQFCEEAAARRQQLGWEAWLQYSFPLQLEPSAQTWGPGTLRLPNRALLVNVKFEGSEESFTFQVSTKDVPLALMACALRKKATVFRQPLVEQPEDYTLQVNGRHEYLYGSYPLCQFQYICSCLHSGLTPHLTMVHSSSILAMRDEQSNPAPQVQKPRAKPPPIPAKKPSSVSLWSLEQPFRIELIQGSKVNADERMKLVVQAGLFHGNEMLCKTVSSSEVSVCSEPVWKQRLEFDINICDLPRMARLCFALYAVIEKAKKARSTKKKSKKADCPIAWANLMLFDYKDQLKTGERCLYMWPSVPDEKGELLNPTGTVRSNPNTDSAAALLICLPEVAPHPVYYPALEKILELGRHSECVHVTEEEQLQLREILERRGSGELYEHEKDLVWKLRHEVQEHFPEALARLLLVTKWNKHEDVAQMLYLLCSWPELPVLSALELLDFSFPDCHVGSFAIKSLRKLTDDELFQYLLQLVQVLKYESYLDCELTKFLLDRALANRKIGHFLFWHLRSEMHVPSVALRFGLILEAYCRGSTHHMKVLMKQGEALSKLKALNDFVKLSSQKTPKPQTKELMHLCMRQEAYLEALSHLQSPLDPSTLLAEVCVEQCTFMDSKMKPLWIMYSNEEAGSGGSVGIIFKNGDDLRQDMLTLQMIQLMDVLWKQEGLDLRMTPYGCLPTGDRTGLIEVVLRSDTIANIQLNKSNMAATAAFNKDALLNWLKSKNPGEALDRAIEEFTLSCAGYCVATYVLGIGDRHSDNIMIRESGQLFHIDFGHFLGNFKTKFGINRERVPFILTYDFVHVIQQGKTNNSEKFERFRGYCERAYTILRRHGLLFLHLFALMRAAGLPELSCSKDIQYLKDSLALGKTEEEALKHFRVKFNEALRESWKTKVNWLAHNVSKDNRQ
Chain of PI3Kδ (p110δ/p85α)(h) (P27986 whole entry partner): as the sequence (P27986 whole entry partner) above
Experimental: [The source words this procedure for another target and says it was used here with some conditions changed.] as §1, §2
as §3, with “2> […]” for “2>”

PI3K β (p110β/p85α)(h) = PI3K β (p110β/p85α)(h) (Homo sapiens, UniProt P42338); test: Assay for phosphatidylinositol 3-kinase beta (PI3Kβ) activity, PI3K-HTRF kit; details: TR-FRET; enzyme 0.725 μg/ml, 10 μM PIP2, 10 μM ATP
Chain of PI3K β (p110β/p85α)(h) (P42338 whole entry): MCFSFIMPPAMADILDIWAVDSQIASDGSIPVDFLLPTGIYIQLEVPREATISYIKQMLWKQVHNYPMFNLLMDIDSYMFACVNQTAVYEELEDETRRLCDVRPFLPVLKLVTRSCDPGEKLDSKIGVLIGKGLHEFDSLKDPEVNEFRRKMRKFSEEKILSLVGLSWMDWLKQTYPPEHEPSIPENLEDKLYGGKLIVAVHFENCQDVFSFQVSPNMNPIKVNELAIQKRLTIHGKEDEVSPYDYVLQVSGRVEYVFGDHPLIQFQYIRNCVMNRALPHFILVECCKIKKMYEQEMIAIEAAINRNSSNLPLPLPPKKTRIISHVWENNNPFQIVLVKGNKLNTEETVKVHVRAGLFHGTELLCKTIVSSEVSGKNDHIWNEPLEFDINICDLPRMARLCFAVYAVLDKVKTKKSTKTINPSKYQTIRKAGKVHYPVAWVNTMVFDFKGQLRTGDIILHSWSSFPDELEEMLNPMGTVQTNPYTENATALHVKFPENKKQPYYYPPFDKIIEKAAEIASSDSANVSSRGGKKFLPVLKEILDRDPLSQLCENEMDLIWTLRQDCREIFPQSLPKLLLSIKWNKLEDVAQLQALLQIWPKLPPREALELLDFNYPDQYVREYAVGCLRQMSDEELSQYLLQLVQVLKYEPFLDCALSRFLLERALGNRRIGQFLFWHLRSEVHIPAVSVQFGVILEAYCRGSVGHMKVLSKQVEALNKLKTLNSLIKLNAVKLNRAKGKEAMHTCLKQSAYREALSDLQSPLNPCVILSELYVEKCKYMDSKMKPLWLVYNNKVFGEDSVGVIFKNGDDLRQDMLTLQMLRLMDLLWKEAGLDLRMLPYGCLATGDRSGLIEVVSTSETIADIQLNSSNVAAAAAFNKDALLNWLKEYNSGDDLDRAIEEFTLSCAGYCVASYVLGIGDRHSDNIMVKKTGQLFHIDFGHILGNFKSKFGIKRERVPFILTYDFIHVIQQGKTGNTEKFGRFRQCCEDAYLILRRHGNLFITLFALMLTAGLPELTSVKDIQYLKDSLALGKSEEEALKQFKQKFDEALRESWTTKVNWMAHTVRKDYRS
Chain of PI3K β (p110β/p85α)(h) (P27986 whole entry partner): as the sequence (P27986 whole entry partner) above
Experimental: [The source words this procedure for another target and says it was used here with some conditions changed.] as §1, §2
as §3, with “2> […]” for “2>”

Chain of PI3Kγ (p120γ)(h) (P48736 whole entry): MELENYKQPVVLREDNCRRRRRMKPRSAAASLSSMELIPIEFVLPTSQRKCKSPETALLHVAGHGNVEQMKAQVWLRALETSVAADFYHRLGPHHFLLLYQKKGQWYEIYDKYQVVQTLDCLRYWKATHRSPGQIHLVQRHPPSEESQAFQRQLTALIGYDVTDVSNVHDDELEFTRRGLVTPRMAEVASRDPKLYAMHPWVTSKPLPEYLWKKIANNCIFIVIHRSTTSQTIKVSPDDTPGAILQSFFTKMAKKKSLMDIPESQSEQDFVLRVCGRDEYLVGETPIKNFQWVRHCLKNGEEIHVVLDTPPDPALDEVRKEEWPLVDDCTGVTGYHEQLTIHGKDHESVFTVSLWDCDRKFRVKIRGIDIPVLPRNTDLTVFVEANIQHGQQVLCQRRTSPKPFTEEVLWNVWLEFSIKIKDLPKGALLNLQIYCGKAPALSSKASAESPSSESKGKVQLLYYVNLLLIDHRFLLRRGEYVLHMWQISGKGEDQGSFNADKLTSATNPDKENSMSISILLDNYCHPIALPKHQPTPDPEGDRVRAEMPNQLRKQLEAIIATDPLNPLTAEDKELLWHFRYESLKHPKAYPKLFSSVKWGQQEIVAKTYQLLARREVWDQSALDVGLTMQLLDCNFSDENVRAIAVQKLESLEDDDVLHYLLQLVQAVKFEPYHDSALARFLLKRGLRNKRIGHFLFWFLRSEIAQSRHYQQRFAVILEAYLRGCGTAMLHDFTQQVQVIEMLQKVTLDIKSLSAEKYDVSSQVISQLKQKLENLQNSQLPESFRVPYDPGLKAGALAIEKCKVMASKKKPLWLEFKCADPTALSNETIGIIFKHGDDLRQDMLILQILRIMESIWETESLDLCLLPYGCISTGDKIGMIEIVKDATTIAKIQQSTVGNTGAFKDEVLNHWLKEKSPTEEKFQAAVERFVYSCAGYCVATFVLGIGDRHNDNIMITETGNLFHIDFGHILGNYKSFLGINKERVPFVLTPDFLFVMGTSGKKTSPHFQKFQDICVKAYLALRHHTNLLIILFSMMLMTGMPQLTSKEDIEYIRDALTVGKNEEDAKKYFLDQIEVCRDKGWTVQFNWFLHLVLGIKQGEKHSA

Row | IC50 (PI3Kγ (p120γ)(h)) | IC50 (PI3Kα (p110α/p85α)(h)) | IC50 (PI3Kδ (p110δ/p85α)(h)) | IC50 (PI3K β (p110β/p85α)(h)) | Molecule
1 | 10 nM | 5 nM | > 10000 nM | > 10000 nM | O=C1NC(=S)S/C1=C\c1cc2cncc(-c3ccc4c(c3)CCO4)c2o1 [Example 187, (Z)-5-[{7-(2,3-Dihydrobenzofuran-5-yl)furo[3,2-c]pyridin-2-yl}methylene]-2-thioxothiazolidin-4-one]
2 | 10 nM | 10 nM | > 10000 nM | > 10000 nM | COc1c(C)cc(-c2cncc3cc(/C=C4\SC(=O)NC4=O)oc23)cc1C [Example 73, (Z)-5-[{7-(4-Methoxy-3,5-dimethylphenyl)furo[3,2-c]pyridin-2-yl}methylene]thiazolidine-2,4-dione]
3 | 9 nM | 43 nM | > 10000 nM | > 10000 nM | CSc1ccc(-c2cncc3cc(/C=C4\SC(=O)NC4=O)oc23)cc1 [Example 23, (Z)-5-([7-{4-(Methylthio)phenyl}furo[3,2-c]pyridin-2-yl]methylene)thiazolidine-2,4-dione]
4 | 134 nM | 62 nM | 1170 nM | 250 nM | O=C1NC(=S)S/C1=C\c1cc2cncc(C(=O)NCc3ccc(Cl)cc3)c2o1 [Example 427, (Z)—N-(4-Chlorobenzyl)-2-{(4-oxo-2-thioxothiazolidin-5-ylidene)methyl}furo[3,2-c]pyridine-7-carboxamide]
5 | 108 nM | 21 nM | 51 nM | 23 nM | O=C1NC(=O)/C(=C/c2cc3cncc(-c4cccc(NS(=O)(=O)c5ccccc5)c4)c3o2)S1 [Example 141, (Z)—N-(3-[2-{(2,4-Dioxothiazolidin-5-ylidene)methyl}furo[3,2-c]pyridin-7-yl]phenyl)benzenesulfonamide]
6 | 12 nM | 11 nM | 220 nM | 1940 nM | Cc1cc(-c2cncc3cc(/C=C4\SC(=O)NC4=O)oc23)ccc1S(=O)(=O)NC(C)(C)C [Example 310, (Z)—N-tert-Butyl-4-[2-{(2,4-dioxothiazolidin-5-ylidene)methyl}furo[3,2-c]pyridin-7-yl]-2-methylbenzenesulfonamide]
7 | 10 nM | 41 nM | 924 nM | 1430 nM | Nc1ccc(-c2cncc3cc(/C=C4\SC(=S)NC4=O)oc23)cc1C(F)(F)F [Example 361, (Z)-5-([7-{4-Amino-3-(trifluoromethyl)phenyl}furo[3,2-c]pyridin-2-yl]methylene)-2-thioxothiazolidin-4-one]
8 | 8 nM | 6 nM | > 10000 nM | > 10000 nM | CCOc1ccc(-c2cncc3cc(/C=C4\SC(=O)NC4=O)oc23)cc1C(F)(F)F [Example 94, (Z)-5-([7-{4-Ethoxy-3-(trifluoromethyl)phenyl}furo[3,2-c]pyridin-2-yl]methylene)thiazolidine-2,4-dione]
9 | 15 nM | 8 nM | 168 nM | 48 nM | O=C1NC(=O)/C(=C/c2cc3cncc(-c4ccc(O)nc4)c3o2)S1 [Example 11, (Z)-5-[{7-(6-Hydroxypyridin-3-yl)furo[3,2-c]pyridin-2-yl}methylene]thiazolidine-2,4-dione]
10 | 12 nM | 25 nM | 801 nM | 5070 nM | Cc1cc(C#Cc2cncc3cc(/C=C4\SC(=O)NC4=O)oc23)ccc1F [Example 453, (Z)-5-([7-{(4-Fluoro-3-methylphenyl)ethynyl}furo[3,2-c]pyridin-2-yl]methylene)thiazolidine-2,4-dione]
11 | 33 nM | 23 nM | 113 nM | 184 nM | CCOC(C#Cc1cncc2cc(/C=C3\SC(=S)NC3=O)oc12)OCC [Example 483, (Z)-5-[{7-(3,3-Diethoxypropyn-1-yl)furo[3,2-c]pyridin-2-yl}methylene]-2-thioxothiazolidin-4-one]
12 | 33 nM | 5 nM | 137 nM | 1390 nM | COC(=O)c1ccc(C#Cc2cncc3cc(/C=C4\SC(=O)NC4=O)oc23)cc1 [Example 532, (Z)-Methyl 4-([2-{(2,4-dioxothiazolidin-5-ylidene)methyl}furo[3,2-c]pyridin-7-yl]ethynyl)benzoate]
13 | 38 nM | 33 nM | > 10000 nM | > 10000 nM | O=C1NC(=O)/C(=C/c2cc3cncc(-c4ccc(S(=O)(=O)N5CCCCC5)cc4)c3o2)S1 [Example 262, (Z)-5-([7-{4-(Piperidin-1-ylsulfonyl)phenyl}furo[3,2-c]pyridin-2-yl]methylene)thiazolidine-2,4-dione]
14 | 14 nM | 4 nM | > 10000 nM | > 10000 nM | COc1ccccc1C#Cc1cncc2cc(/C=C3\SC(=S)NC3=O)oc12 [Example 486, (Z)-5-([7-{(2-Methoxyphenyl)ethynyl}furo[3,2-c]pyridin-2-yl]methylene)-2-thioxothiazolidin-4-one]
15 | 96 nM | – | 4230 nM | 293 nM | O=C1NC(=O)/C(=C/c2cc3cncc(-c4cccc(OCC(F)(F)F)c4)c3o2)S1 [Example 110, (Z)-5-([7-{3-(2,2,2-Trifluoroethoxyl)phenyl}furo[3,2-c]pyridin-2-yl]methylene)thiazolidine-2,4-dione]

Row | Molecule | IC50 (PI3Kγ (p120γ)(h)) | IC50 (PI3Kα (p110α/p85α)(h)) | IC50 (PI3Kδ (p110δ/p85α)(h)) | IC50 (PI3K β (p110β/p85α)(h))
16 | 2-Thioxo-5-[{7-(m-tolylethynyl)furo[3,2-c]pyridin-2-yl}methyl]thiazolidin-4-one [Example 546] | 3 nM | 360 nM | > 10000 nM | 5500 nM
